This experiment concerns the target T1, Endothelin-1 receptor (Homo sapiens, UniProt P25101).
T1 sequence (P25101 whole entry): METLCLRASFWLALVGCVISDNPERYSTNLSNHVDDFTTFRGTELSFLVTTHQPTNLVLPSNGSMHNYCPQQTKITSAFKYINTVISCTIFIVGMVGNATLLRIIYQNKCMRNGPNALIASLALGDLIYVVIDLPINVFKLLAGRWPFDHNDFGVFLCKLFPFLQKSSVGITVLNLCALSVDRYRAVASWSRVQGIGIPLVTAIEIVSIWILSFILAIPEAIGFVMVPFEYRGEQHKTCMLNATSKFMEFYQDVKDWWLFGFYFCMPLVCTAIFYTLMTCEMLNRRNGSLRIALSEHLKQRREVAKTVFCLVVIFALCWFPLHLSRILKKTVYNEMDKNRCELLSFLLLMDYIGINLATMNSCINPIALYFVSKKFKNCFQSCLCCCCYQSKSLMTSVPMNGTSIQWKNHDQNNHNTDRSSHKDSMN
Kind of experiment: Antagonist activity against human ET-1 by ELISA analysis. The format is functional. In general terms: In an ELISA, binding on a coated surface is turned into a signal by an enzyme label.
By IC50 is commonly meant the concentration that inhibits the measured activity by half. A low value points to greater potency in that assay. For the compound `COc1ccccc1Oc1c(NS(=O)(=O)c2ccccc2)nc(-c2ncccn2)nc1OCC1CCCCN1C` (stereo unspecified), it took 1.91 nM to reach half-maximal inhibition (IC50). Turning to `C=CCCOc1nc(-c2ncccn2)nc(NS(=O)(=O)c2ccc(C)cc2)c1Oc1ccccc1OC`, half-maximal inhibition (IC50) required 3.78 nM. Regarding `COc1ccccc1Oc1c(NS(=O)(=O)c2ccc(C)cc2)nc(-c2ncccn2)nc1OCC(F)F`, the IC50 worked out at 4.76 nM.

`COc1ccccc1Oc1c(NS(C)(=O)=O)nc(-c2ncccn2)nc1OCC1CCC1` showed an IC50 of 1.69 nM. Consider `COc1ccccc1Oc1c(NS(=O)(=O)c2ccc(C)cc2)nc(-c2ncccn2)nc1OCC1CC1`, for which the midpoint of inhibition, the IC50, lay at 1.21 nM.

As for `COc1ccccc1Oc1c(NS(=O)(=O)c2ccc(C(C)(C)C)cc2)nc(-c2ncccn2)nc1OCC1CCCCN1C` (stereo unspecified), the IC50 worked out at 2.59 nM.

`COc1ccccc1Oc1c(NS(=O)(=O)c2ccc(C)cc2)nc(-c2ncccn2)nc1OCC1CCCCN1C` (stereo unspecified) showed an IC50 of 1.14 nM.

Compound `COc1ccccc1Oc1c(NS(=O)(=O)c2ccc(C)cc2)nc(-c2ncccn2)nc1OCC1CCCC1` had an IC50 of 1.62 nM. The same measure for `COc1ccccc1Oc1c(NS(C)(=O)=O)nc(-c2ncccn2)nc1OCC1CCCCN1C` (stereo unspecified): 2.21 nM; for `COc1ccccc1Oc1c(NS(C)(=O)=O)nc(-c2ncccn2)nc1OCC1CCCC1`: 2.19 nM; for `C=CCCOc1nc(-c2ncccn2)nc(NS(=O)(=O)c2ccc(C(C)(C)C)cc2)c1Oc1ccccc1OC`: 1.24 nM. The same measure for `COc1ccccc1Oc1c(NS(=O)(=O)c2ccc(C(C)(C)C)cc2)nc(-c2ncccn2)nc1OCC1CCCC1`: 1.15 nM; for `CC#CCOc1nc(-c2ncccn2)nc(NS(=O)(=O)c2ccccc2)c1Oc1ccccc1OC`: 4.33 nM. For the compound `CC/C=C/CCOc1nc(-c2ncccn2)nc(NS(=O)(=O)c2ccccc2)c1Oc1ccccc1OC`, the IC50 is 0.97 nM. `COc1ccccc1Oc1c(NS(C)(=O)=O)nc(-c2ncccn2)nc1OCC1CCCN1C` (stereo unspecified) had an IC50 of 2.33 nM. `COc1ccccc1Oc1c(NS(=O)(=O)c2ccc(C(C)(C)C)cc2)nc(-c2ncccn2)nc1OCC1CCCN(C)C1` (stereo unspecified) returned an IC50 of 1.43 nM. The same measure for `COc1ccccc1Oc1c(NS(=O)(=O)c2ccccc2)nc(-c2ncccn2)nc1OCC1CCCN(C)C1` (stereo unspecified): 3.38 nM; for `COc1ccccc1Oc1c(NS(=O)(=O)c2ccc(C)cc2)nc(-c2ncccn2)nc1OCC1CCCN(C)C1` (stereo unspecified): 2.46 nM; for `COc1ccccc1Oc1c(NS(=O)(=O)c2ccccc2)nc(-c2ncccn2)nc1OCC(F)F`: 0.88 nM. The same measure for `CC#CCOc1nc(-c2ncccn2)nc(NS(=O)(=O)c2ccc(C)cc2)c1Oc1ccccc1OC`: 2.99 nM. On to `COc1ccccc1Oc1c(NS(C)(=O)=O)nc(-c2ncccn2)nc1OCC(F)F`, for which the IC50 was determined as 0.47 nM. As to `COc1ccccc1Oc1c(NS(=O)(=O)c2ccc(C(C)(C)C)cc2)nc(-c2ncccn2)nc1OCCC(C)C`, the IC50 was 4.78 nM. The same measure for `COc1ccccc1Oc1c(NS(=O)(=O)c2ccc(C(C)(C)C)cc2)nc(-c2ncccn2)nc1OCC(F)F`: 0.77 nM. The compound `COc1ccccc1Oc1c(NS(=O)(=O)c2ccccc2)nc(-c2ncccn2)nc1OCC1CCC1` had an IC50 of 1.84 nM. The compound `COc1ccccc1Oc1c(NS(C)(=O)=O)nc(-c2ncccn2)nc1OCC1CCCN(C)C1` (stereo unspecified) had an IC50 of 2.01 nM. The same measure for `COc1ccccc1Oc1c(NS(=O)(=O)c2ccc(C(C)(C)C)cc2)nc(-c2ncccn2)nc1OCC1CC1`: 1.22 nM; for `C=CCCOc1nc(-c2ncccn2)nc(NS(C)(=O)=O)c1Oc1ccccc1OC`: 2.41 nM; for `COc1ccccc1Oc1c(NS(=O)(=O)c2ccc(C)cc2)nc(-c2ncccn2)nc1OCCC(C)C`: 1.39 nM. The same measure for `CC/C=C/CCOc1nc(-c2ncccn2)nc(NS(=O)(=O)c2ccc(C)cc2)c1Oc1ccccc1OC`: 3.92 nM. Regarding `COc1ccccc1Oc1c(NS(=O)(=O)c2ccc(C(C)(C)C)cc2)nc(-c2ncccn2)nc1OCC1CCCN1C` (stereo unspecified), half-maximal inhibition (IC50) was put at 1.46 nM. As for `C=CCCOc1nc(-c2ncccn2)nc(NS(=O)(=O)c2ccccc2)c1Oc1ccccc1OC`, the figure is 3.78 nM.

Source of the values: ChEMBL document CHEMBL5625200 (Eur J Med Chem, 2023).
